Drawing on PubChem BioAssay AID434946 (Broad Institute, 2010), this text covers EC50 for 27 compounds.

Calls of active or inactive are those of the source.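 How the source made its calls: active means compounds lowering the growth signal with a fitted EC50 no more than tenfold above the top dose; inconclusive means flat fit with partial effect, or a poor fit; inactive means the rest.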 Some results are limits rather than exact numbers.

This test deals with NIH 3T3 fibroblast viability, Alamar Blue fluorescence, 48 h. Briefly: mammalian fibroblast viability loss, compound alone – cell-based, alamar blue fluorescence, no fluconazole, cytotoxicity control for Candida fluconazole-potentiator project, dose response (AID 434946). (In general: Alamar Blue is a resazurin reagent that responds to reducing activity.)
One may read the EC50 as the concentration at which the effect is half-maximal. With `COc1ccc(-c2nnc(NC(=O)c3ccc(F)cc3)o2)cc1`, the EC50 was > 26 µM (inactive).
Consider `Cc1ccc(C(=O)Nc2cccc(-c3cn4ccccc4n3)c2)cc1`, for which the EC50 is > 26 µM (inactive).
With `O=C(Nc1nnc(-c2ccc3c(c2)CCCC3)o1)c1ccc(Cl)cc1Cl` the figure was 18.4 µM.
With `CCc1ccc2c(c1)/C(=C/C(=O)c1cccs1)C(=O)N2` the figure was > 26 µM (inactive); with `O=C(Nc1nnc(CCc2ccccc2)s1)c1ccco1`, > 26 µM (inactive).
With `COc1cc2c(cc1NC(=O)c1ccco1)CCCC2` the figure was > 26 µM (inactive); with `CCCC(=O)NC(c1ccc(Cl)cc1)c1ccc2cccnc2c1O` (configuration not stated), 21.3 µM; with `O=C(Nc1sc2c(c1C(=O)c1ccc(Cl)cc1)CCCC2)c1cccnc1`, > 26 µM (inactive).
On to `COc1ccc(-n2nc(C(=O)NCC(=O)N3CCN(c4ccccc4)CC3)c3ccccc3c2=O)c(OC)c1`, for which the EC50 is > 26 µM (inactive).
Under `CCOC(=O)c1c(-c2ccccc2Cl)cn2ccccc12` stands > 26 µM (inactive); under `CC(C)N1CCc2c(sc(NC(=O)c3nc4ccccc4s3)c2C(N)=O)C1`, > 26 µM (inactive).
In the case of `O=C1/C(=C\c2ccccc2)CCc2c1[nH]c1ccccc21`, the EC50 is > 26 µM (inactive).
With `O=C(Nc1nnc(SCc2ccc(Cl)cc2)s1)c1ccc2ccccc2n1` the figure was > 26 µM (inactive).
With `Cc1ccc(Nc2nc(N)c([N+](=O)[O-])c(N3CCC(C)CC3)n2)cc1C` the figure was > 26 µM (inactive); with `O=C(Oc1c(Cl)cc(Cl)c2cccnc12)c1cccs1`, 1.98 µM; with `O=C(NNC1=C(C(=O)C(F)(F)F)CCC1)c1ccc(Cl)cc1`, > 26 µM (inactive).
With `O=C(Nc1nnc(-c2ccco2)o1)c1ccc(Cl)cc1` the figure was > 26 µM (inactive); with `Cc1ccc(C(=O)c2coc3c2C(=O)C(=O)c2ccccc2-3)cc1`, > 26 µM (inactive).
As to `O=C(Nc1nc(-c2ccccn2)cs1)c1ccc(Br)s1`, the 50% effective concentration (EC50) was 11.9 µM.
With `Clc1ccc2c(c1)C(c1cccs1)=NNC(c1cccnc1)=N2` the figure was > 26 µM (inactive); with `Cc1nc2ccccc2cc1OCc1ccc(F)cc1`, > 26 µM (inactive).
Consider `CC(C)COCc1ccc(O)c2ncccc12`, for which the EC50 was 19.5 µM.
Under `Cc1oc2c(F)c(F)c(F)c(F)c2c1S(=O)(=O)Nc1cccc(C(F)(F)F)c1` stands > 26 µM (inactive); under `CCOC(=O)N1C(=O)C2(CCCCC2)N(c2ccc(C)cc2)C1=S`, 0.888 µM.
With `Cc1ccc(/C=C/C(=O)c2ccccc(=O)c2O)cc1C` the figure was > 26 µM (inactive); with `Nc1nccnc1C(=O)Nc1nnc(SCc2ccc(Cl)cc2)s1`, > 26 µM (inactive).
Under `c1ccc2c(c1)OCC(CNc1ncnc3sccc13)O2` (configuration not stated) stands > 26 µM (inactive).
